Read-outs that look alike come from different tables or passages of the source.
Assays:
[1] = test system: A549; experiment: CellTiter-Glo cell proliferation assay, A549; assay type: cell-based; conditions: Homo sapiens, 72 hours, Table 1, read-out: Growth inhibition (IC50)
Procedure: (§1) CellTiter-Glo® Luminescent Cell Viability assay (with Promega CellTiter 96® Luminescent CellTiter-Glo® kit) was used to study the proliferation inhibition by test compounds. Compounds were resuspended in DMSO to make a 25 mM stock suspension. Cells of cancer cell lines or normal tissues were seeded in 96-well plates at 1,500 to 5,000 cells/well overnight. Compounds were 2- or 3-fold diluted serially to obtain 10 concentrations. Then, the drugs were added to the cell wells by Bravo (Agilent) and incubated for 72 hours. The cells were lysed by adding CellTiter-Glo® Reagent (per manufacturer's instructions) and subsequently, the luminescence was read using EnVision® (PerkinElmer).
(§2) The percent of growth was calculated as follows. DMSO-treated cells were employed as vehicle control (High control, HC) and culture medium alone was employed as background (Low control, EC). % growth=100×(Lum sample−Lum EC)/(Lum HC−Lum EC). The ICso was calculated by concentration-response curve fitting using Graphpad Prism.
(§3) Hematological cancer cell lines tested included OCI-AML3, MV-4-11, KG-1, Kasumi-1, K562, THP-1; solid cancer cell lines tested included U87MG, U251, T98G, LN229, A172, H460, H2009, A549; normal cell lines tested included HCN2 and 3T3-L1. […] However, they were not toxic to in vitro cultured normal cells.

[2] = test system: U87MG; experiment: CellTiter-Glo cell proliferation assay, U87MG; assay type: cell-based, human; conditions: Homo sapiens, U-87 MG, 72 h, U87MG; 72 hours; Table 1; read-out: Growth inhibition (IC50)
Procedure: as §1, §2, §3

[3] = test system: KG1; experiment: CellTiter-Glo cell proliferation assay, KG1; assay type: cell-based; conditions: Homo sapiens, KG-1, 72 hours, Table 1, read-out: Growth inhibition (IC50)
Procedure: as §1, §2, §3

[4] = test system: H2009; experiment: CellTiter-Glo cell proliferation assay, H2009; assay type: cell-based; conditions: Homo sapiens, NCI-H2009, 72 hours, Table 1, read-out: Growth inhibition (IC50)
Procedure: as §1, §2, §3

[5] = test system: OCI-AML3; experiment: CellTiter-Glo cell proliferation assay, OCI-AML3; assay type: cell-based; conditions: Homo sapiens, OCI-AML-3, 72 hours, Table 1, read-out: Growth inhibition (IC50)
Procedure: as §1, §2, §3

[6] = test system: K562; experiment: CellTiter-Glo cell proliferation assay, K562; assay type: cell-based; conditions: Homo sapiens, 72 hours, Table 1, read-out: Growth inhibition (IC50)
Procedure: as §1, §2, §3

[7] = Pharmacokinetic profile summary; assay type: in vivo, mice or rats
Procedure: Blood was collected from mice (n=3, or 5) to contribute to the total of 10 time points (pre-dose, 5 min, 15 min, 30 min, 1 hour, 2 hours, 4 hours, 8 hours, 12 hours and 24 hours). At the designated time points, animals were anaesthetized under isoflurane, and approximately 110 μL of blood per time point was collected via retro-orbital puncture into pre-cooled K2EDTA tubes. Blood samples were put on wet ice and centrifuged (2000 g, 5 min at 4° C.) to obtain plasma within 30 minutes of sample collection. All samples were stored frozen at approximately −80° C. until analysis. Prior to analysis, samples were mixed with internal standard in acetonitrile, vortexed, centrifuged, and supernatant was injected for analysis. Concentration of compounds in plasma was determined using LC-MS-MS instrumentation (API 4000, Triple Quadrupole LC/MS/MS Mass Spectrometer). AUC values were calculated using Phoenix Win Nonlin 6.3 software package, PO-Noncompartmental model 200 (extravascular input).
Following collection, brain tissue was rinsed with cold saline, dried on filter paper, weighed and snap-frozen by placing on dry ice. All samples were stored frozen at approximately −80° C. until analysis. At the time of analysis, brain tissue was homogenized (homogenizing solution PBS, pH 7.4), mixed with internal standard in acetonitrile, vortexed, centrifuged, and supernatant was injected for analysis. Concentration of compounds in plasma was determined using LC-MS-MS instrumentation (API 4000, Triple Quadrupole LC/MS/MS Mass Spectrometer). Plasma samples were treated with the identical method (except homogenization step) and the concentration of compound in each matrix was calculated based on generated standard curves.
The pharmacokinetic profile of test compounds in mice or rats was determined from several test compounds was determined using the methods described in Example 22.

[8] = test system: H460; experiment: CellTiter-Glo cell proliferation assay, H460; assay type: cell-based; conditions: Homo sapiens, NCI-H460, 72 hours, Table 1, read-out: Growth inhibition (IC50)
Procedure: as §1, §2, §3

[9] = test system: THP-1; experiment: CellTiter-Glo cell proliferation assay, THP-1; assay type: cell-based; conditions: Homo sapiens, 72 hours, Table 1, read-out: Growth inhibition (IC50)
Procedure: as §1, §2, §3

[10] = test system: MV411; experiment: CellTiter-Glo cell proliferation assay, MV411; assay type: cell-based; conditions: Homo sapiens, MV4-11, 72 hours, Table 1, read-out: Growth inhibition (IC50)
Procedure: as §1, §2, §3

[11] = target: XPO1 (Homo sapiens, UniProt O14980); experiment: REV-GFP translocation assay in U2OS cells; assay type: cell-based; parameters: endogenous in cells; host or cells: U2OS cells stably expressing REV-GFP (clones from HD Biosciences)
XPO1, sequence (O14980 whole entry): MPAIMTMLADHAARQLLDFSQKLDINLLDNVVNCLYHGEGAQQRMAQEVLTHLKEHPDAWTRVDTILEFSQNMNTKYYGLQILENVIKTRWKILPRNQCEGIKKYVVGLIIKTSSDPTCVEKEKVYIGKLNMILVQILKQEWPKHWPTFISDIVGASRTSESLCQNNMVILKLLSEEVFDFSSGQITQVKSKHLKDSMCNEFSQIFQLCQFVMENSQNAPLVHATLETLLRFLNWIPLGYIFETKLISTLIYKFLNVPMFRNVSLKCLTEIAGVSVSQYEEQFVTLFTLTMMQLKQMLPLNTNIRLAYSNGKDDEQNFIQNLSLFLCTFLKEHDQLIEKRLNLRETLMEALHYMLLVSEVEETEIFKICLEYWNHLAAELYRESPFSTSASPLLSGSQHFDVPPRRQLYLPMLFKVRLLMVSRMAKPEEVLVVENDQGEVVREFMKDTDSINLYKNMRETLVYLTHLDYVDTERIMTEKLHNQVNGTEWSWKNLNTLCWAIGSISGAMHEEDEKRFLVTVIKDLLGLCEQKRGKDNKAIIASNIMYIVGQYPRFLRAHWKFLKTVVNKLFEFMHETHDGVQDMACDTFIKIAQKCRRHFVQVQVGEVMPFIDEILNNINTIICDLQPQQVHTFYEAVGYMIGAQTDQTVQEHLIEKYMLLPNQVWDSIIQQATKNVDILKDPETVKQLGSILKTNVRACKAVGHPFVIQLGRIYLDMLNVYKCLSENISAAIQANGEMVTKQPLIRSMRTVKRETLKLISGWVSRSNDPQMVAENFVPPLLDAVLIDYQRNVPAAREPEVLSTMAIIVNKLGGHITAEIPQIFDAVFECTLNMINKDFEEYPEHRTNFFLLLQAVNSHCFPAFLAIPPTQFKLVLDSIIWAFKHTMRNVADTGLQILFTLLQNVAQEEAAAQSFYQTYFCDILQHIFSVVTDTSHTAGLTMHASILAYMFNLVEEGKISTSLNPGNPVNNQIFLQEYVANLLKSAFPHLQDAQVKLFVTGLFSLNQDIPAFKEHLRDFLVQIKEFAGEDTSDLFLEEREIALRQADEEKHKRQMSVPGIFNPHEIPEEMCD
Procedure: LTD in China, and cells were cultured with growth medium. […] The highest Leptomycin B (LMB) concentration was set to 50 nM and serially diluted as the positive control, while the highest concentrations of other compounds were set to 10 μM. The cells treated with various drugs or DMSO, were incubated at 37° C. and 5% CO2 for 1 h. Then, cells were fixed with 4% formaldehyde for 15 min at room temperature. The cells were washed and stained with 100 μL Hoechst 33342 working solution for 10 min at room temperature in dark, after which the cell fluorescence was imaged with the High-Content Imaging System, ImageXpress® (Molecular Devices) using the 20× objective. The filters were set for Hoechst (350/461 nm) and GFP/FITC (488/509 nm) (wavelength for excitation and emission maxima). The % effect of REV nuclear translocation was calculated with the following formula: % effect=([…]- signals from testing compounds; ILMB-signals of 50 nM LMB group; ICTRL-signals of vehicle control group.

[12] = test system: Kasumi-1; experiment: CellTiter-Glo cell proliferation assay, Kasumi-1; assay type: cell-based; conditions: Homo sapiens, 72 hours, Table 1, read-out: Growth inhibition (IC50)
Procedure: as §1, §2, §3

IC50 [1]: 1860 nM
IC50 [2]: 194 nM
IC50 [4]: 453 nM
IC50 [5]: 341 nM
IC50 [6]: 1750 nM
Kp ([7]; brain/plasma, 5 mpk/AUC Ratio, read-out: B/P ratio): 0.29
bioavailability ([7]; plasma, oral, mice or rats): 27%
AUC ([7]; plasma, po, 10 mg/kg, 10 mpk): 1060 ng·h/mL
half-life ([7]; plasma, mice or rats): 2.9 h
Cmax ([7]; po, 5 mg/kg, 5 mpk, first number of Plasma/brain pair, read-out: Cmax/(ng/mL) Plasma): 276 ng/mL
Cmax ([7]; po, 5 mg/kg, 5 mpk, second number of Plasma/brain pair, read-out: Cmax/(ng/mL) brain): 68.5 ng/mL
Cmax ([7]; po, 10 mg/kg, plasma, 10 mpk, read-out: Cmax (ng/ml) plasma/10 mpk): 312 ng/mL
IC50 [8]: 306 nM
IC50 [9]: 838 nM
IC50 [10]: 110 nM
EC50 ([11]; REV-EGFP U2OS cells, 1 h, Table 2, read-out: Rev-GFP/EC50): 0.0148 µM
IC50 ([11]; Table 10, first (or only) value of the cell): 14.8 nM
EC50 ([11]; Table 13, read-out: Rev-GFP assay/μM): 0.015 µM
Compound: NC(=O)/C(=C/n1cnc(-c2cc(C(F)(F)F)cc(S(F)(F)(F)(F)F)c2)n1)c1cncnc1 [Compound IV, (E)-3-(3-(3-(Pentafluorosulfaneyl)-5-(trifluoromethyl)phenyl)-1H-1,2,4-triazol-1-yl)-2-(pyrimidin-5-yl)acrylamide]
IC50 [3]: 698 nM
IC50 [12]: 124 nM

— patent US11767313B2, “Compounds as nuclear transport modulators and uses thereof” (XWPHARMA LTD., priority 2018, dated 2023)
